# Results reported in paper PMC8169660, “Flavin-dependent halogenases catalyze enantioselective olefin halocyclization” (Nature Communications, 2021).
# Target: T1, RebH variant 4V + S (Lentzea aerocolonigenes, UniProt Q8KHZ8, F111S/N470S, form not given)
# T1 construct: evolved RebH variant 4V + S; pET28b in E. coli BL21(DE3) + pGro7, Ni-NTA purified (His-tagged)
# Test: initial rates of bromolactonization, product 1a by UPLC
# Type: biochemical
# Settings: NaBr (5 eq), NAD and FAD 100 uM, MBP-RebF 2.5 uM, glucose dehydrogenase, glucose 20 mM; 4V + S 20 uM; room temperature
# T1 sequence (Q8KHZ8 whole entry F111S/N470S, form open): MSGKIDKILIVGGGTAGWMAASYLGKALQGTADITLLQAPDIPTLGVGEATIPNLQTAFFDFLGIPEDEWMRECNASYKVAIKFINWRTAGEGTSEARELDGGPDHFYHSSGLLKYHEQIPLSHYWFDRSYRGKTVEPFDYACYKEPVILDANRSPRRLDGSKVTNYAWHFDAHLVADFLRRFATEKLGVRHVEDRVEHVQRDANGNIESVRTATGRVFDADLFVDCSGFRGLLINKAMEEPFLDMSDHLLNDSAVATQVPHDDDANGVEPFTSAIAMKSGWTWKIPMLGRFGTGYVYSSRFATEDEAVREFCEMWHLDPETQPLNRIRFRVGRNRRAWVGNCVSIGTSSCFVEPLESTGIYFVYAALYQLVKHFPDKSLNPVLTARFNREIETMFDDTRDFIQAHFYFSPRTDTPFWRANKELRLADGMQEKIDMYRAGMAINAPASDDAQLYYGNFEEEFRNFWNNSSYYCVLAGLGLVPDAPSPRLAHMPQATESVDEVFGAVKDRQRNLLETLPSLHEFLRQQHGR
compound,measurement,value
"C=C(CCC(=O)O)c1ccc(OC)cc1 [compound 1, 4-methoxyphenyl-4-pentenoic acid]",Km,470 µM
